In PubChem BioAssay AID180 (DTP/NCI, 2004) one finds T/C data, which are given here for 18 compounds.

In the experiment the test system is BDF1 mice, Adenocarcinoma 755 s.c., tumor weight T/C. The experiment can be described thus: NCI In Vivo Anticancer Drug Screen. Data for tumor model Adenocarcinoma 755 (subcutaneous) in B6D2F1 (BDF1) mice. The note with it: endpoint: mean tumor weight, higher = larger tumour. A digest of the protocol: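 Values express treated (T) relative to vehicle-dosed control (C) animals, based on survival or tumour size measured after compound treatment of mice bearing a transplanted tumour.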

Setting [1] is: dose: 5.0 mg/kg/injection, schedule: Q01DX011 (ip), vehicle: carboxymethylcellulose (CMC).
The mark [2] stands for this setting: dose: 50.0 mg/kg/injection, schedule: Q01DX011 (ip), vehicle: carboxymethylcellulose (CMC).

“And” between values parts separate entries of the source, which are not always exact repeats. Equal entries are not always repeated.

For orientation: T/C means the result in the treated group divided by that in the control group, in per cent.

As for `N#[N+]c1n[nH]nc1C(N)=O`, the T/C runs as follows: (dose: 6.25 mg/kg/injection, schedule: Q01DX011 (ip), vehicle: carboxymethylcellulose (CMC)) 94 % of control; (dose: 12.5 mg/kg/injection, schedule: Q01DX011 (ip), vehicle: carboxymethylcellulose (CMC)) 63 % of control.

Turning to `N#[N+]c1cnc([O-])[nH]c1=O`, the T/C reads like this: (dose: 1.25 mg/kg/injection, schedule: Q01DX011 (ip), vehicle: carboxymethylcellulose (CMC)) 111 % of control; (dose: 1.41 mg/kg/injection, schedule: Q01DX011 (ip), vehicle: carboxymethylcellulose (CMC)) 80 % of control; (dose: 1.47 mg/kg/injection, schedule: Q01DX011 (ip), vehicle: carboxymethylcellulose (CMC)) 116 % of control; (dose: 2.5 mg/kg/injection, schedule: Q01DX011 (ip), vehicle: carboxymethylcellulose (CMC)) 53 % of control; (dose: 2.83 mg/kg/injection, schedule: Q01DX011 (ip), vehicle: carboxymethylcellulose (CMC)) 108 % of control; (dose: 2.95 mg/kg/injection, schedule: Q01DX011 (ip), vehicle: carboxymethylcellulose (CMC)) 98 % of control. In addition, the T/C is, setting by setting: under setting [1], 39 % of control; (dose: 5.65 mg/kg/injection, schedule: Q01DX011 (ip), vehicle: carboxymethylcellulose (CMC)) 94 % of control; (dose: 5.9 mg/kg/injection, schedule: Q01DX011 (ip), vehicle: carboxymethylcellulose (CMC)) 76 % of control; (dose: 11.3 mg/kg/injection, schedule: Q01DX011 (ip), vehicle: carboxymethylcellulose (CMC)) 49 % of control; (dose: 1170.0 micrograms/kg/injection, schedule: Q01DX011 (ip), vehicle: carboxymethylcellulose (CMC)) 86 % of control; (dose: 2925.0 micrograms/kg/injection, schedule: Q01DX011 (ip), vehicle: carboxymethylcellulose (CMC)) 78 % of control.

Regarding `CCCn1cnc2c(SCc3ccc(Br)cc3)nc(N)nc21`, the T/C is 58 % of control (dose: 7.8 mg/kg/injection, schedule: Q01DX011 (ip), vehicle: methylcellulose (MC)); 57 % of control (dose: 15.6 mg/kg/injection, schedule: Q01DX011 (ip), vehicle: methylcellulose (MC)); 20 % of control (dose: 31.25 mg/kg/injection, schedule: Q01DX011 (ip), vehicle: methylcellulose (MC)); 21 % of control and 23 % of control (dose: 62.5 mg/kg/injection, schedule: Q01DX011 (ip), vehicle: methylcellulose (MC)).

Regarding `CC(C)Cn1cnc2c(SC(C)C)nc(N)nc21`, the T/C is, setting by setting: (dose: 6.25 mg/kg/injection, schedule: Q01DX011 (ip), vehicle: methylcellulose (MC)) 56 % of control; (dose: 12.5 mg/kg/injection, schedule: Q01DX011 (ip), vehicle: methylcellulose (MC)) 19 % of control; (dose: 25.0 mg/kg/injection, schedule: Q01DX011 (ip), vehicle: methylcellulose (MC)) 4 % of control; (dose: 50.0 mg/kg/injection, schedule: Q01DX011 (ip), vehicle: methylcellulose (MC)) 1 % of control.

For `CCCOP(=S)(N1CC1)N1CC1`, the T/C is, setting by setting: (dose: 3.3 mg/kg/injection, schedule: Q01DX011 (ip), vehicle: methylcellulose (MC)) 74 % of control; (dose: 6.8 mg/kg/injection, schedule: Q01DX011 (ip), vehicle: methylcellulose (MC)) 77 % of control; (dose: 13.5 mg/kg/injection, schedule: Q01DX011 (ip), vehicle: methylcellulose (MC)) 40 % of control.

Take `CCCCN(C)N=Nc1ccc(C(N)=O)cc1`: the T/C (dose: 16.0 mg/kg/injection, schedule: Q01DX011 (ip), vehicle: carboxymethylcellulose (CMC)) is 14 % of control; the T/C (dose: 31.0 mg/kg/injection, schedule: Q01DX011 (ip), vehicle: carboxymethylcellulose (CMC)) was 27 % of control; the T/C under setting [2] was 25 % of control; the T/C (dose: 75.0 mg/kg/injection, schedule: Q01DX011 (ip), vehicle: carboxymethylcellulose (CMC)) is 14 % of control.

As to `OC1C(O)C(O)C2(CO2)C(O)C1O` (stereo not drawn), under “dose: 300.0 mg/kg/injection, schedule: Q01DX011 (ip), vehicle: saline”, the T/C is 99 % of control.

`CC(=O)Nc1c(Cl)c(Cl)c2c(c1Cl)Cc1cc(Cl)ccc1-2`: the T/C (dose: 27.0 mg/kg/injection, schedule: Q01DX011 (ip), vehicle: acetone) was 87 % of control; the T/C (dose: 55.0 mg/kg/injection, schedule: Q01DX011 (ip), vehicle: acetone) is 31 % of control; the T/C (dose: 110.0 mg/kg/injection, schedule: Q01DX011 (ip), vehicle: other) was 46 % of control; the T/C (dose: 110.0 mg/kg/injection, schedule: Q01DX011 (ip), vehicle: saline) is 31 % of control; the T/C (dose: 225.0 mg/kg/injection, schedule: Q01DX011 (ip), vehicle: other) was 32 % of control; the T/C (dose: 225.0 mg/kg/injection, schedule: Q01DX011 (ip), vehicle: saline) was 8 % of control. Moreover, under “dose: 450.0 mg/kg/injection, schedule: Q01DX011 (ip), vehicle: other”, the T/C was 19 % of control.

In the case of `CS(=O)(=O)OCCC(=O)Nc1ccc(NC(=O)CCOS(C)(=O)=O)cc1`, the T/C reads like this: (dose: 46.0 mg/kg/injection, schedule: Q01DX011 (ip), vehicle: methylcellulose (MC)) 117 % of control; (dose: 91.0 mg/kg/injection, schedule: Q01DX011 (ip), vehicle: methylcellulose (MC)) 111 % of control; (dose: 183.0 mg/kg/injection, schedule: Q01DX011 (ip), vehicle: methylcellulose (MC)) 85 % of control; (dose: 375.0 mg/kg/injection, schedule: Q01DX011 (ip), vehicle: methylcellulose (MC)) 117 % of control.

For `NOCC(=O)O`, the T/C (dose: 6.25 mg/kg/injection, schedule: Q01DX011 (ip), vehicle: water) is 62 % of control; the T/C (dose: 12.5 mg/kg/injection, schedule: Q01DX011 (ip), vehicle: other) is 54 % of control; the T/C (dose: 12.5 mg/kg/injection, schedule: Q01DX011 (ip), vehicle: water) is 68 % of control and 70 % of control; the T/C (dose: 18.75 mg/kg/injection, schedule: Q01DX011 (ip), vehicle: other) was 65 % of control; the T/C (dose: 25.0 mg/kg/injection, schedule: Q01DX011 (ip), vehicle: water) was 29 % of control.

In the case of `S=c1nc[nH]c2c1ncn2C1CCCCO1` (stereo not drawn), the T/C was 29 % of control under setting [1] and 16 % of control (dose: 10.0 mg/kg/injection, schedule: Q01DX011 (ip), vehicle: carboxymethylcellulose (CMC)).

In the case of `CCC(=O)O[C@H]1CC[C@H]2[C@@H]3CCC4=CC(=O)CC[C@]4(C)[C@H]3[C@@H](O)C[C@]12C`, the T/C by setting is: (dose: 50.0 mg/kg/injection, schedule: Q01DX011 (sc), vehicle: steriod suspending solution) 121 % of control; (dose: 200.0 mg/kg/injection, schedule: Q01DX011 (sc), vehicle: steriod suspending solution) 101 % of control.

As for `O=CN(O)CC(=O)O`, the T/C runs as follows: (dose: 62.5 mg/kg/injection, schedule: Q01DX011 (ip), vehicle: carboxymethylcellulose (CMC)) 98 % of control; (dose: 125.0 mg/kg/injection, schedule: Q01DX011 (ip), vehicle: carboxymethylcellulose (CMC)) 86 % of control; (dose: 250.0 mg/kg/injection, schedule: Q01DX011 (ip), vehicle: carboxymethylcellulose (CMC)) 85 % of control.

Regarding `CC1CN1P(=O)(N1CCCCC1)N1CC1C` (stereo not drawn), the T/C reads like this: (dose: 3.0 mg/kg/injection, schedule: Q01DX011 (ip), vehicle: saline) 107 % of control and 86 % of control; (dose: 6.0 mg/kg/injection, schedule: Q01DX011 (ip), vehicle: saline) 57 % of control and 71 % of control; (dose: 48.0 mg/kg/injection, schedule: Q01DX011 (ip), vehicle: saline) 11 % of control.

On to `CO[C@@H]([CH2][Hg][S]C#N)[C@@H]([CH2][Hg][S]C#N)OC`, for which the T/C (dose: 9.5 mg/kg/injection, schedule: Q01DX011 (ip), vehicle: carboxymethylcellulose (CMC)) is 56 % of control and the T/C (dose: 18.75 mg/kg/injection, schedule: Q01DX011 (ip), vehicle: carboxymethylcellulose (CMC)) is 57 % of control.

As to `CCN(CC)CCOc1ccc(/C=N/Nc2nc3c(c(=O)n(C)c(=O)n3C)n2C)cc1`, the T/C is 94 % of control (dose: 30.0 mg/kg/injection, schedule: Q01DX011 (ip), vehicle: carboxymethylcellulose (CMC)); 113 % of control (dose: 60.0 mg/kg/injection, schedule: Q01DX011 (ip), vehicle: carboxymethylcellulose (CMC)); 102 % of control and 124 % of control (dose: 240.0 mg/kg/injection, schedule: Q01DX011 (ip), vehicle: carboxymethylcellulose (CMC)).

As for `CCOC(=O)c1c(C#N)c(Cl)nc(C)c1[N+](=O)[O-]`, the T/C is 60 % of control (dose: 1.5 mg/kg/injection, schedule: Q01DX011 (ip), vehicle: carboxymethylcellulose (CMC)) and 70 % of control (dose: 3.0 mg/kg/injection, schedule: Q01DX011 (ip), vehicle: carboxymethylcellulose (CMC)).

Take `CCCc1c(Cl)nc(Cl)nc1Cl`: the T/C is 54 % of control (dose: 17.5 mg/kg/injection, schedule: Q01DX011 (ip), vehicle: carboxymethylcellulose (CMC)); 85 % of control (dose: 25.0 mg/kg/injection, schedule: Q01DX011 (ip), vehicle: carboxymethylcellulose (CMC)); 104 % of control (dose: 35.0 mg/kg/injection, schedule: Q01DX011 (ip), vehicle: carboxymethylcellulose (CMC)); 43 % of control under setting [2]; 44 % of control (dose: 100.0 mg/kg/injection, schedule: Q01DX011 (ip), vehicle: carboxymethylcellulose (CMC)).
